Assays:
Format in all cases: cell-based
[1] = molecular target: T1, von Hippel-Lindau disease tumor suppressor/Androgen receptor (Homo sapiens, UniProt P10275+P40337); assay: Protac activity at E3 ubiquitin-protein ligase/AR in human LNCAP cells assessed as induction of AR degradation after 24 hrs by ELISA relative to control
Target sequence in this assay (P10275 whole entry, looked up): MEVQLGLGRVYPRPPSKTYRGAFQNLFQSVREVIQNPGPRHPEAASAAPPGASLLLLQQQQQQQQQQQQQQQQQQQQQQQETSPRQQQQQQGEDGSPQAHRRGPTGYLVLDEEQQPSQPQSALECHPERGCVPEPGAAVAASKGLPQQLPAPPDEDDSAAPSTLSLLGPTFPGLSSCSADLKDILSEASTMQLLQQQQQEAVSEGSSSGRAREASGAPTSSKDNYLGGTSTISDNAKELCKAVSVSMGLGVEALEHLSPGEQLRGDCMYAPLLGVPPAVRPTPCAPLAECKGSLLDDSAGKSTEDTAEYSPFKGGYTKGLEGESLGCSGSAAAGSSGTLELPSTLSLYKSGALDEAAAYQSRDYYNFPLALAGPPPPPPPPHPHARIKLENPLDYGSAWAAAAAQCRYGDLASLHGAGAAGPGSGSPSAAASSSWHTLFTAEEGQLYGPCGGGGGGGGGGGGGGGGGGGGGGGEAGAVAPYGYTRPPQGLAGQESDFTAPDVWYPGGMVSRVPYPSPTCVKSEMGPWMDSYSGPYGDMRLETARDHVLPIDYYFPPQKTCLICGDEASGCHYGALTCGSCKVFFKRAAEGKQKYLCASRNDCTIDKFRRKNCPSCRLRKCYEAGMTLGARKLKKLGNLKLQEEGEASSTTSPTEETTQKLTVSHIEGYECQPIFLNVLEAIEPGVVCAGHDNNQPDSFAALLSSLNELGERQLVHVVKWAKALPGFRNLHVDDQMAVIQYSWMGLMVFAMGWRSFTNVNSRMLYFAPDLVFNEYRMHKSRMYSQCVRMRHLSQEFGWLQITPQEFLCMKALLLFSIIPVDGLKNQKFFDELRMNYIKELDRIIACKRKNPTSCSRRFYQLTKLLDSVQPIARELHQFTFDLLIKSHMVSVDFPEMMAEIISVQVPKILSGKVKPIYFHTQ
Target sequence in this assay (P40337 whole entry, looked up): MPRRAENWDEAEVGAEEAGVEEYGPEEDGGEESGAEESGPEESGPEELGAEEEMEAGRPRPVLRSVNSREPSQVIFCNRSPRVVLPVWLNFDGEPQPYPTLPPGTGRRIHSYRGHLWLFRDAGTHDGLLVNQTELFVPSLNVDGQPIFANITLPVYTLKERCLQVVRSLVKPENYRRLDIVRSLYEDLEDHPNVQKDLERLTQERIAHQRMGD

[2] = molecular target: T1, von Hippel-Lindau disease tumor suppressor/Androgen receptor; assay: Protac activity at E3 ubiquitin-protein ligase/AR in human LNCAP cells assessed as induction of AR degradation after 24 hrs by ELISA
Target sequence in this assay (P10275 whole entry): as the sequence (P10275 whole entry, looked up) above
Target sequence in this assay (P40337 whole entry): as the sequence (P40337 whole entry, looked up) above

[3] = molecular target: T1, von Hippel-Lindau disease tumor suppressor/Androgen receptor; assay: Protac activity at E3 ubiquitin-protein ligase/AR in human VCAP cells assessed as induction of AR degradation after 24 hrs by ELISA relative to control
Target sequence in this assay (P10275 whole entry, looked up): as the sequence (P10275 whole entry, looked up) above
Target sequence in this assay (P40337 whole entry, looked up): as the sequence (P40337 whole entry, looked up) above

[4] = molecular target: T1, von Hippel-Lindau disease tumor suppressor/Androgen receptor; assay: Protac activity at E3 ubiquitin-protein ligase/AR in human VCAP cells assessed as induction of AR degradation after 24 hrs by ELISA
Target sequence in this assay (P10275 whole entry): as the sequence (P10275 whole entry, looked up) above
Target sequence in this assay (P40337 whole entry): as the sequence (P40337 whole entry, looked up) above

[5] = molecular target: T1, von Hippel-Lindau disease tumor suppressor/Androgen receptor; assay: Protac activity at E3-ubiquitin ligase/AR in human LNCAP cells assessed as AR degradation up to 15 mins by ELISA relative to control; set-up: concentration or dose not given beside the values
Target sequence in this assay (P10275 whole entry, looked up): as the sequence (P10275 whole entry, looked up) above
Target sequence in this assay (P40337 whole entry, looked up): as the sequence (P40337 whole entry, looked up) above

[6] = molecular target: T1, von Hippel-Lindau disease tumor suppressor/Androgen receptor; assay: Protac activity at E3-ubiquitin ligase/AR in human VCaP cells assessed as AR degradation up to 15 mins by ELISA relative to control; set-up: concentration or dose not given beside the values
Target sequence in this assay (P10275 whole entry, looked up): as the sequence (P10275 whole entry, looked up) above
Target sequence in this assay (P40337 whole entry, looked up): as the sequence (P40337 whole entry, looked up) above

[7] = molecular target: T1, von Hippel-Lindau disease tumor suppressor/Androgen receptor; assay: Protac activity at E3-ubiquitin ligase/AR in human LNCAP cells assessed as time taken for maximum degradation by ELISA
Target sequence in this assay (P10275 whole entry, looked up): as the sequence (P10275 whole entry, looked up) above
Target sequence in this assay (P40337 whole entry, looked up): as the sequence (P40337 whole entry, looked up) above

[8] = molecular target: T1, von Hippel-Lindau disease tumor suppressor/Androgen receptor; assay: Protac activity at E3-ubiquitin ligase/AR in human VCaP cells assessed as time taken for maximal degradation by ELISA
Target sequence in this assay (P10275 whole entry, looked up): as the sequence (P10275 whole entry, looked up) above
Target sequence in this assay (P40337 whole entry, looked up): as the sequence (P40337 whole entry, looked up) above

SMILES | Emax [1] | DC50 [2] | Emax [3] | DC50 [4] | Activity [5] | Activity [6] | TIME [7] | TIME [8]
Cc1ncsc1-c1ccc(CNC(=O)[C@@H]2C[C@@H](O)CN2C(=O)[C@@H](NC(=O)COCCCOCCCCOc2ccc(N3C(=S)N(c4cnc(C#N)c(C(F)(F)F)c4)C(=O)C3(C)C)cc2)C(C)(C)C)cc1 | > 71% | ≤ 50 µM | > 71% | ≤ 50 µM | 50% | 50% | 4 h | 4 h
Cc1ncsc1-c1ccc(CNC(=O)[C@@H]2C[C@@H](O)CN2C(=O)[C@@H](NC(=O)COCCCOCCCCCOc2ccc(N3C(=S)N(c4ccc(C#N)c(C(F)(F)F)c4)C(=O)C3(C)C)cc2)C(C)(C)C)cc1 | > 71% | ≤ 50 µM | < 70% | ≤ 50 µM | 50% | 50% | 4 h | 4 h
Cc1ncsc1-c1ccc([C@H](C)NC(=O)[C@@H]2C[C@@H](O)CN2C(=O)[C@@H](NC(=O)COCCCOCCCCCOc2c(F)cc(N3C(=S)N(c4ccc(C#N)c(C(F)(F)F)c4)C(=O)C3(C)C)cc2F)C(C)(C)C)cc1 | > 71% | ≤ 50 µM | < 70% | ≤ 50 µM | 50% | 50% | 4 h | 4 h
Cc1ncsc1-c1ccc(CNC(=O)[C@@H]2C[C@@H](O)CN2C(=O)[C@@H](NC(=O)COCCCOCCCCCOc2ccc(N3C(=S)N(c4cnc(C#N)c(C(F)(F)F)c4)C(=O)C3(C)C)cc2)C(C)(C)C)cc1 | > 71% | ≤ 50 µM | < 70% | ≤ 50 µM | 50% | 50% | 4 h | 4 h
Cc1ncsc1-c1ccc(CNC(=O)[C@@H]2C[C@@H](O)CN2C(=O)[C@@H](NC(=O)COCCCCOc2ccc(-c3ccc(N4C(=S)N(c5ccc(C#N)c(C(F)(F)F)c5)C(=O)C4(C)C)cc3)cc2)C(C)(C)C)cc1 | > 71% | ≤ 50 µM | > 71% | ≤ 50 µM | 50% | 50% | 4 h | 4 h
Cc1ncsc1-c1ccc(CNC(=O)[C@@H]2C[C@@H](O)CN2C(=O)[C@@H](NC(=O)COCCCOCCCCOc2ccc(N3C(=S)N(c4ccc(C#N)c(Cl)c4)C(=O)C3(C)C)cc2)C(C)(C)C)cc1 | > 71% | ≤ 50 µM | > 71% | ≤ 50 µM | 50% | 50% | 4 h | 4 h
Cc1ncsc1-c1ccc(CNC(=O)[C@@H]2C[C@@H](O)CN2C(=O)[C@@H](NC(=O)COCCCOCCCCOc2ccc(N3C(=S)N(c4ccc(C#N)c(C(F)(F)F)c4)C(=O)C3(C)C)cc2F)C(C)(C)C)cc1 | > 71% | ≤ 50 µM | > 71% | ≤ 50 µM | 50% | 50% | 4 h | 4 h
Cc1ncsc1-c1ccc([C@H](C)NC(=O)[C@@H]2C[C@@H](O)CN2C(=O)[C@@H](NC(=O)COCCCOCCCCCOc2ccc(N3C(=S)N(c4ccc(C#N)c(C(F)(F)F)c4)C(=O)C3(C)C)cc2F)C(C)(C)C)cc1 | > 71% | ≤ 50 µM | < 70% | ≤ 50 µM | 50% | 50% | 4 h | 4 h
